In patent US5523315A, “N-(hydroxyethyl)butanediamide derivatives” (Bio-Mega/Boehringer Ingelheim Research Inc., priority 1993, dated 1996):

biological target: T1, human renin (Homo sapiens, UniProt P00797); assay: plasma renin assay (inhibition of human renin; angiotensin I generated, measured by radioimmunoassay); assay type: biochemical; conditions: human plasma pool, pH 6.0, 2 h incubation at 37°
T1 construct: A human plasma pool is used as the source of both the substrate (angiotensinogen) and the enzyme (renin); from tissue; host or cells: pooled human plasma
T1 sequence (P00797 67-406): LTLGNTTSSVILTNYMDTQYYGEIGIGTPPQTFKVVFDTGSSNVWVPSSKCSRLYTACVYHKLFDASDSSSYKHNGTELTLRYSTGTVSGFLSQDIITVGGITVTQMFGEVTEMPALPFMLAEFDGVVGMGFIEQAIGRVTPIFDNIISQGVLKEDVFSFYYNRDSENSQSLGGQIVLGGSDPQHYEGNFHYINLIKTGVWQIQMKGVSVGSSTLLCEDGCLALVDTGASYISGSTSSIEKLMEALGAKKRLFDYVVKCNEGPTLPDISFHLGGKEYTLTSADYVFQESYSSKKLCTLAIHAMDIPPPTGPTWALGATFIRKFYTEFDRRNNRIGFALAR
Description: The assay is performed as follows: The test compound (i.e. the inhibitor) is dissolved in dimethylsulfoxide (1 mM stock solution) and diluted with an aqueous buffer solution of 270 mM 2-(N-morpholino)ethanesulfonic acid and 1% human serum albumin (pH 5.85, also containing dimercaprol and 8-hydroxyquinoline sulfate in accordance with the instructions of the RIA kit noted below) to give an assay mixture in which the final dimethylsulfoxide content is 1% (v/v).
A human plasma pool is used as the source of both the substrate (angiotensinogen) and the enzyme (renin). The reaction is initiated by the addition of 50 μL of human plasma pool to 50 μL of various concentrations of inhibitor in the 1% dimethylsulfoxide assay buffer. The plasma renin activity is measured by the amount of angiotensin I generated at pH 6.0 following a 2 h incubation at 37°.
Quantitation of angiotensin I is performed by radioimmunoassay (RIA kit from New England Nuclear-Dupont, Mississauga, ON, Canada). The enzymatic activity of renin is expressed in ng of angiotensin I generated (/mL/2 h). The extent of inhibition of the reaction is determined from the amount of angiotensin I generated in reference to a control prepared without inhibitor. Nonlinear regression analysis is used to calculate the IC50 values, i.e. the molar concentration of the test compound required to cause a 50% inhibition of the enzyme activity.

Question: Which IC50 does the source give for CC(C)C[C@H](O)[C@H](O)[C@H](CC1CCCCC1)NC(=O)[C@@H](CC(=O)NCC1(O)CCCCC1)CC1CC1 [Compound 17, N^4-[(1-hydroxycyclohexyl)methyl]-N^1-[1(S)-(cyclohexylmethyl)-2(R),3(S)-dihydroxy-5-methylhexyl]-2(R)-(cyclopropylmethyl)butanediamide] here?
Answer: 94 nM

Question: CC(C)C[C@H](O)[C@H](O)[C@H](CC1CCCCC1)NC(=O)[C@@H](CC(=O)N[C@@H](CO)[C@@H](O)c1ccccc1)CC1CC1 [Compound 18, N^4-[2(S)-hydroxy-1(S)-(hydroxymethyl)-2-phenylethyl]-N^1-[1(S)-(cyclohexylmethyl)-2(R),3(S)-dihydroxy-5-methylhexyl]-2(R)-(cyclopropylmethyl)butanediamide] was tested. Which IC50 did it give?
Answer: 95 nM

Question: With CC(C)C[C@H](O)[C@H](O)[C@H](CC1CCCCC1)NC(=O)[C@@H](CC(=O)N(Cc1ccccn1)CC1(O)CCC(=O)CC1)CC1CC1 [Compound 19, N^4-[(1-hydroxy-4-oxocyclohexyl)methyl]-N^4-(2-pyridinylmethyl)-N^1-[1(S)-(cyclohexylmethyl)-2(R),3(S)-dihydroxy-5-methylhexyl]-2(R)-(cyclopropylmethyl)butanediamide] as the molecule, how does the IC50 read?
Answer: 100 nM

Question: CC(C)C[C@H](O)[C@H](O)[C@H](CC1CCCCC1)NC(=O)[C@@H](CC(=O)NC[C@H](O)C1CCCCC1)CC1CC1 [Compound 20 (R), N^4-(R)-(2-cyclohexyl-2-hydroxyethyl)-N^1-[1(S)-(cyclohexylmethyl)-2(R),3(S)-dihydroxy-5-methylhexyl]-2(R)-(cyclopropylmethyl)butanediamide] was tested. Which IC50 did it give?
Answer: 115 nM

Question: For CC(C)C[C@H](O)[C@H](O)[C@H](CC1CCCCC1)NC(=O)[C@@H](CC(=O)NC[C@@H](O)C1CCCCC1)CC1CC1 [Compound 20 (S), N^4-(S)-(2-cyclohexyl-2-hydroxyethyl)-N^1-[1(S)-(cyclohexylmethyl)-2(R),3(S)-dihydroxy-5-methylhexyl]-2(R)-(cyclopropylmethyl)butanediamide], which IC50 is on record?
Answer: 150 nM

Question: Which IC50 does the source give for CC(C)C[C@H](O)[C@H](O)[C@H](CC1CCCCC1)NC(=O)[C@@H](CC(=O)N(Cc1ccccc1)CC(C)(C)O)CC1CC1 [Compound 21, N^4-benzyl-N^4-(2-hydroxy-2-methylpropyl)-N^1-[1(S)-(cyclohexylmethyl)-2(R),3(S)-dihydroxy-5-methylhexyl]-2(R)-(cyclopropylmethyl)butanediamide] here?
Answer: 130 nM

Question: With CC(C)C[C@H](O)[C@H](O)[C@H](CC1CCCCC1)NC(=O)[C@@H](CC(=O)N(CC(=O)N(C)C)CC1(O)CCCCC1)CC1CC1 [Compound 23, N^4-[(1-hydroxycyclohexyl)methyl]-N^4-[2-(dimethylamino)-2-oxoethyl]-N^1-[1(S)-(cyclohexylmethyl)-2(R),3(S)-dihydroxy-5-methylhexyl]-2(R)-(cyclopropylmethyl)butanediamide] as the molecule, how does the IC50 read?
Answer: 16 nM

Question: For CC(C)C[C@H](O)[C@H](O)[C@H](CC1CCCCC1)NC(=O)[C@@H](CC(=O)N(CC(=O)N(C)C)CC1(O)CCCCC1)Cc1c[nH]cn1 [Compound 24, N^4-[(1-hydroxycyclohexyl)methyl]-N^4-[2-(dimethylamino)-2-oxoethyl]-N^1-[1(S)-(cyclohexylmethyl)-2(R),3(S)-dihydroxy-5-methylhexyl]-2(R)-(1H-imidazol-4-ylmethyl)-butanediamide], which IC50 is on record?
Answer: 1.8 nM

Question: With CC(C)C[C@H](O)[C@H](O)[C@H](CC1CCCCC1)NC(=O)[C@@H](CC(=O)N(CC1CCCCC1)CC1(O)CCCCC1)CC1CC1 [Compound 25, N^4-(cyclohexylmethyl)-N^4-[(1-hydroxycyclohexyl)methyl]-N^1-[1(S)-(cyclohexylmethyl)-2(R),3(S)-dihydroxy-5-methylhexyl]2(R)-(cyclopropylmethyl)butanediamide] as the molecule, how does the IC50 read?
Answer: 79 nM

Question: Which IC50 does the source give for CC(C)C[C@H](O)[C@H](O)[C@H](CC1CCCCC1)NC(=O)[C@@H](CC(=O)N(Cc1cccnc1)CC1(O)CCCCC1)CC1CC1 [Compound 26, N^4-[(1-hydroxycyclohexyl)methyl]-N^4-(3-pyridinylmethyl)-N^1-[1(S)-(cyclohexylmethyl)-2(R),3(S)-dihydroxy-5-methylhexyl]-2(R)-(cyclopropylmethyl)butanediamide] here?
Answer: 26 nM

Question: For CC(C)C[C@H](O)[C@H](O)[C@H](CC1CCCCC1)NC(=O)[C@@H](CC(=O)N(Cc1ccccc1)CC1(O)CCCCC1)Cc1cscn1 [Compound 27, N^4-benzyl-N^4-[ (1-hydroxycyclohexyl)methyl]-N^1-[1(S)-(cyclohexylmethyl)-2(R),3(S)-dihydroxy-5-methylhexyl]-2(R)-(4-thiazolylmethyl)butanediamide], which IC50 is on record?
Answer: 15 nM

Question: With CC(C)C[C@H](O)[C@H](O)[C@H](CC1CCCCC1)NC(=O)[C@@H](CC(=O)N(Cc1ccccc1)CC1(O)CCCCC1)Cc1c[nH]cn1 [Compound 28] as the molecule, how does the IC50 read?
Answer: 53 nM

Question: Which IC50 does the source give for CC(C)C[C@H](O)[C@H](O)[C@H](CC1CCCCC1)NC(=O)[C@@H](CC(=O)N(Cc1ccncc1)CC1(O)CCCCC1)CC1CC1 [Compound 29] here?
Answer: 31 nM

Question: CC(C)C[C@H](O)[C@H](O)[C@H](CC1CCCCC1)NC(=O)[C@@H](CC(=O)N(C)CC1(O)CCCCC1)Cc1cscn1 [Compound 30, N^4-[(1-hydroxycyclohexyl)methyl]-N^4-methyl-N^1-[1(S)-(cyclohexylmethyl)-2(R),3(S)-dihydroxy-5-methylhexyl]-2(R)-(4-thiazolylmethyl)butanediamide] was tested. Which IC50 did it give?
Answer: 12 nM

Question: Which IC50 does the source give for CC(C)C[C@H](O)[C@H](O)[C@H](CC1CCCCC1)NC(=O)[C@@H](CC(=O)N(CCO)CC1CCCCC1)CC1CC1 [Compound 31, N^4-(cyclohexylmethyl)-N^4-(2-hydroxyethyl)-N^1-[1(S)-(cyclohexylmethyl)-2(R),3(S)-dihydroxy-5-methylhexyl]-2(R)-(cyclopropylmethyl)butanediamide] here?
Answer: 100 nM

Question: With CC(C)C[C@H](O)[C@H](O)[C@H](CC1CCCCC1)NC(=O)[C@@H](CC(=O)N(CC1CCCCC1)CC(C)(C)O)CC1CC1 [Compound 32, N^4-(cyclohexylmethyl)-N^4-(2-hydroxy-2-methylpropyl)-N^1-[1(S)-(cyclohexylmethyl)-2(R),3(S)-dihydroxy-5-methylhexyl]-2(R)-(cyclopropylmethyl)butanediamide] as the molecule, how does the IC50 read?
Answer: 46 nM

Question: How did the IC50 turn out when CC(C)C[C@H](O)[C@H](O)[C@H](CC1CCCCC1)NC(=O)[C@@H](CC(=O)N(Cc1ccc2c(c1)OCO2)CC1(O)CCCCC1)Cc1cscn1 [Compound 33, N^4-[(1-hydroxycyclohexyl)methyl]-N^4-[(3,4-methylenedioxyphenyl)methyl]-N^1-[1(S)-(cyclohexylmethyl)-2(R),3(S)-dihydroxy-5-methylhexyl]-2(R)-(4-thiazolylmethyl)butanediamide] was run?
Answer: 11 nM

Question: For CC(C)C[C@H](O)[C@H](O)[C@H](CC1CCCCC1)NC(=O)[C@@H](CC(=O)N(CC(=O)N(C)C)CC1(O)CCCCC1)Cc1cscn1 [Compound 34, N^4-[(1-hydroxycyclohexyl)methyl]-N^4-[2-(dimethylamino)-2-oxoethyl]-N^1-[1(S)-(cyclohexylmethyl)-2(R),3(S)-dihydroxy-5-methylhexyl]-2(R)-(4-thiazolylmethyl)butanediamide], which IC50 is on record?
Answer: 1.6 nM

Question: How did the IC50 turn out when CC(C)C[C@H](O)[C@H](O)[C@H](CC1CCCCC1)NC(=O)[C@@H](CC(=O)N(C)CC1(O)CCCCC1)Cc1c[nH]cn1 [Compound 35, N^4-[(1-hydroxycyclohexyl)methyl]-N^4-methyl-N^1-[1(S)-(cyclohexylmethyl)-2(R),3(S)-dihydroxy-5-methylhexyl]-2(R)-(1H-imidazol-4-ylmethyl)-butanediamide] was run?
Answer: 67 nM
